Patent US10508120B2, “TYK2 inhibitors and uses thereof” (Nimbus Lakshmi, Inc., priority 2017, dated 2019)

Key:
[1] = molecular target: human TYK2 (JH2domain-pseudokinase) (Homo sapiens (Human), UniProt P29597); assay: TYK2 JH2 Domain Binding Assay (KINOMEscan)
Summary of the method: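 Kds, run in duplicate, came from Hill fits (slope fixed at −1) of an 11-point 3-fold dilution series starting at 30,000 nM. Bead-retained TYK2 JH2 (aa G556–D888)–NFkB DBD fusion, DNA-tagged and expressed in HEK293 cells, was read by qPCR after 1 h room-temperature binding in 0.9% DMSO.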

Tyk2 kinase domain (DH1) = Tyk2 kinase domain (DH1) (Homo sapiens (Human), UniProt P29597); assay: Tyk2 Radioactive Kinase Assay; assay type: biochemical; details: compound at 10 μM; ATP 10 μM; read-out: Tyk2 JH1% Inhibition @ 10 μM
Summary of the method: (§1)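 Each kinase domain is incubated with test compound at 10 μM. Activity is then measured radiometrically and expressed as percent inhibition relative to uninhibited enzyme.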

JAK2 kinase domain (JH1) = JAK2 kinase domain (JH1) (Homo sapiens (Human), UniProt O60674); assay: JAK2 Radioactive Kinase Assay; assay type: biochemical; details: compound at 10 μM; ATP 10 μM; read-out: JAK2 JH1% Inhibition @ 10 μM
Summary of the method: as §1

Sequence of Tyk2 kinase domain (DH1) (P29597 897-1176): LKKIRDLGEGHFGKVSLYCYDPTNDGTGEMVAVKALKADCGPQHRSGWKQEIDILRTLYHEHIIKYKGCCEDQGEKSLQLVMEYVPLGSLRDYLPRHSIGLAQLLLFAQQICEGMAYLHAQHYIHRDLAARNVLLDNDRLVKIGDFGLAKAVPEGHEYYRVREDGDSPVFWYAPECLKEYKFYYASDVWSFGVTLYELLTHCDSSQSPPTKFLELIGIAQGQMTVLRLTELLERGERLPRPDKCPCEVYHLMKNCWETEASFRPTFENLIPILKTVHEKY
Sequence of human TYK2 (JH2domain-pseudokinase) (P29597 556-888): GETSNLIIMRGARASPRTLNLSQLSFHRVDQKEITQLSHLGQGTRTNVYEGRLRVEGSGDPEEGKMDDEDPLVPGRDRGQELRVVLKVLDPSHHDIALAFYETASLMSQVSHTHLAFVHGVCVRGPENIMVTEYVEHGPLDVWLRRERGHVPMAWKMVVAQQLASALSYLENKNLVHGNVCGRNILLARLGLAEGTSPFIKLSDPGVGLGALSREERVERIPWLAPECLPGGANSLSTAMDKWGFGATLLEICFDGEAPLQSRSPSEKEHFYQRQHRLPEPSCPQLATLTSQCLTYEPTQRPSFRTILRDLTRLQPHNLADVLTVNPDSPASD
Sequence of JAK2 kinase domain (JH1) (O60674 849-1124): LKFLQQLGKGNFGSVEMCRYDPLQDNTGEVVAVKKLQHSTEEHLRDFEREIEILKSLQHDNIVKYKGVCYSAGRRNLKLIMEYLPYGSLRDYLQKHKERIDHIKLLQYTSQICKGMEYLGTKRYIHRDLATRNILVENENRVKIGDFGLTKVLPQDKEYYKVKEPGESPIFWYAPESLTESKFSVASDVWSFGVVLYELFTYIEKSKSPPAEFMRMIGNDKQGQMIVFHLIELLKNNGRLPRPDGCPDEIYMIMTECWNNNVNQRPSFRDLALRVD

| Kd [1] [nM] | inhibition at 10 µM (Tyk2 kinase domain (DH1)) [%] | inhibition at 10 µM (JAK2 kinase domain (JH1)) [%] | SMILES |
| --- | --- | --- | --- |
| 0.2 to 1 | < 50 | < 50 | CNc1cc(-c2cn(C(C)C)c3ncc(Cl)cc23)nc2c(C(=O)NC3CC3)cnn12 [I-253, 5-(5-chloro-1-isopropyl-1H-pyrrolo[2,3-b]pyridin-3-yl)-N-cyclopropyl-7-(methylamino)pyrazolo[1,5-a]pyrimidine-3-carboxamide] |
| 0.2 to 1 | < 50 | < 50 | CNc1cc(-c2cn(C(C)C)c3ncc(C)cc23)nc2c(C(=O)NC3CCC3)cnn12 [I-256] |
| 0.2 to 1 | < 50 | < 50 | CNc1cc(-c2cn(C(C)C)c3ncc(C)cc23)nc2c(C(=O)N[C@H]3C[C@H]3F)cnn12 [I-257] |
| 0.2 to 1 | < 50 | < 50 | [2H]C([2H])([2H])Oc1ncc(C)cc1Nc1cc(NC)n2ncc(C(=O)NC3CCC3)c2n1 [I-260, N-cyclobutyl-5-((2-(methoxy-d3)-5-methylpyridin-3-yl)amino)-7-(methylamino)pyrazolo[1,5-a]pyrimidine-3-carboxamide] |
| 0.2 to 1 | < 50 | < 50 | CNc1cc(Nc2cccn(-c3ccc(OC)cn3)c2=O)nc2c(C(=O)NC3CC3)cnn12 [I-264] |
| < 0.2 | < 50 | < 50 | CNc1cc(Nc2cccn(CCOC)c2=O)nc2c(C(=O)NC3CC3)cnn12 [I-267] |
| < 0.2 | < 50 | < 50 | CNc1cc(Nc2cccn(CCOC)c2=O)nc2c(C(=O)N[C@H]3C[C@H]3F)cnn12 [I-268] |
| 0.2 to 1 | < 50 | < 50 | CNc1cc(Nc2cc(C)cnc2OC)nc2c(C(=O)NCC(C)(C)CO)cnn12 [I-270] |
| 0.2 to 1 | < 50 | < 50 | CNc1cc(Nc2cc(C)cn(-c3ccn(C)n3)c2=O)nc2c(C(=O)NC3CC3)cnn12 [I-271] |
| 1 to 10 | < 50 | < 50 | CNc1cc(-c2cn(C(C)C)c3ncc(Cl)cc23)nc2c(C(=O)NC3CCC3)cnn12 [I-273, 5-(5-chloro-1-isopropyl-1H-pyrrolo[2,3-b]pyridin-3-yl)-N-cyclobutyl-7-(methylamino)pyrazolo[1,5-a]pyrimidine-3-carboamide] |
| 0.2 to 1 | < 50 | < 50 | CNc1cc(Nc2cc(C)cnc2OC2CC2)nc2c(C(=O)NC3CCC3)cnn12 [I-278] |
| < 0.2 | < 50 | < 50 | CNc1cc(Nc2cc(C)cnc2OC2CC2)nc2c(C(=O)N[C@H]3C[C@H]3F)cnn12 [I-279] |
| < 0.2 | < 50 | < 50 | CNc1cc(Nc2cc(C)cnc2OCCOC)nc2c(C(=O)N[C@H]3C[C@H]3F)cnn12 [I-280] |
| 0.2 to 1 | < 50 | < 50 | CNc1cc(Nc2cc(F)cnc2OCCOC)nc2c(C(=O)NC3CC3)cnn12 [I-286] |
| 1 to 10 | < 50 | < 50 | CNc1cc(Nc2cc(C)c(=O)n(-c3cnn(C)c3)c2)nc2c(C(N)=O)cnn12 [I-287, 5-((5-methyl-1-(1-methyl-1H-pyrazol-4-yl)-6-oxo-1,6-dihydropyridin-3-yl)amino)-7-(methylamino)pyrazolo[1,5-a]pyrimidine-3-carboxamide] |
| < 0.2 | < 50 | < 50 | [2H]C([2H])([2H])Oc1ncc(F)cc1Nc1cc(NC)n2ncc(C(=O)N[C@H]3C[C@H]3F)c2n1 [I-289] |
| 0.2 to 1 | < 50 | < 50 | CNc1cc(Nc2cccn(-c3nc(C)c(C)s3)c2=O)nc2c(C(=O)NC3CC3)cnn12 [I-291] |
| 0.2 to 1 | < 50 | < 50 | CNc1cc(Nc2cccn(-c3nc(C)c(C)s3)c2=O)nc2c(C(=O)NC3CCC3)cnn12 [I-293] |
| 0.2 to 1 | < 50 | < 50 | CNc1cc(Nc2cccnc2C(C)(F)F)nc2c(C(=O)NC3CC3)cnn12 [I-297] |
| 1 to 10 | < 50 | < 50 | CNc1cc(Nc2cccnc2OC2COC2)nc2c(C(=O)NC3CCC3)cnn12 [I-298] |
| 0.2 to 1 | < 50 | < 50 | CNc1cc(Nc2cccnc2C(C)(F)F)nc2c(C(=O)NC3CCC3)cnn12 [I-299] |
| 0.2 to 1 | < 50 | < 50 | CNc1cc(Nc2cccnc2C(C)(F)F)nc2c(C(=O)N[C@H]3C[C@H]3F)cnn12 [I-300] |

| Kd [1] [nM] | inhibition at 10 µM (Tyk2 kinase domain (DH1)) [%] | inhibition at 10 µM (JAK2 kinase domain (JH1)) [%] | SMILES |
| --- | --- | --- | --- |
| 0.2 to 1 | < 50 | < 50 | CNc1cc(Nc2cccn(-c3cncc(C)c3)c2=O)nc2c(C(=O)NC3CC3)cnn12 [I-301] |
| < 0.2 | < 50 | < 50 | CNc1cc(Nc2cccn(-c3cncc(C)c3)c2=O)nc2c(C(=O)N[C@H]3C[C@H]3F)cnn12 [I-302] |
| < 0.2 | < 50 | < 50 | CNc1cc(Nc2cccn([C@H]3CC[C@@H](N4CCOCC4)CC3)c2=O)nc2c(C(=O)N[C@H]3C[C@H]3F)cnn12 [I-304] |
| 1 to 10 | < 50 | < 50 | CNc1cc(Nc2cccnc2C(C)(C)O)nc2c(C(=O)NC3CC3)cnn12 [I-306] |
| 0.2 to 1 | < 50 | < 50 | CNc1cc(Nc2cccnc2C(C)(C)O)nc2c(C(=O)N[C@H]3C[C@H]3F)cnn12 [I-307] |
| < 0.2 | < 50 | < 50 | CNc1cc(Nc2cccn(-c3ccc(CCN4CCOCC4)cc3)c2=O)nc2c(C(=O)N[C@H]3C[C@H]3F)cnn12 [I-308] |
| < 0.2 | < 50 | < 50 | CNc1cc(Nc2cccn(C3CCCOC3)c2=O)nc2c(C(=O)NC3CC3)cnn12 (stereo not drawn) [I-313] |
| < 0.2 | < 50 | < 50 | CNc1cc(Nc2cc(Cl)cn(-c3ccnc(C)n3)c2=O)nc2c(C(=O)NC3CC3)cnn12 [I-316] |
| < 0.2 | < 50 | 50 to 70 | CNc1cc(Nc2cccnc2OC2CC2)nc2c(C(=O)N[C@H]3C[C@H](O)C3)cnn12 [I-320, 5-((2-cyclopropoxypyridin-3-yl)amino)-N-((1r, 3r)-3-hydroxycyclobutyl)-7-(methylamino)pyrazolo[1,5-a]pyrimidine-3-carboxamide] |
| 0.2 to 1 | < 50 | < 50 | CNc1cc(Nc2cc(Cl)cn(-c3ncc(C)s3)c2=O)nc2c(C(=O)NC3CC3)cnn12 [I-322] |
| 0.2 to 1 | < 50 | < 50 | CNc1cc(Nc2cc(Cl)cn(-c3cnn(C4CC4)c3C)c2=O)nc2c(C(=O)NC3CC3)cnn12 [I-325] |
| 0.2 to 1 | < 50 | < 50 | CNc1cc(Nc2cccn(-c3ccnn3C)c2=O)nc2c(C(=O)NC3CC3)cnn12 [I-327] |
| < 0.2 | < 50 | < 50 | CNc1cc(Nc2cccn(-c3ccnn3C)c2=O)nc2c(C(=O)NC3CCC3)cnn12 [I-328] |
| < 0.2 | < 50 | < 50 | CNc1cc(Nc2cccn(-c3ccnn3C)c2=O)nc2c(C(=O)N[C@H]3C[C@H]3F)cnn12 [I-335] |
| 0.2 to 1 | < 50 | < 50 | COc1ncccc1Nc1cc(NC2CC2)n2ncc(C(=O)NC3CC3)c2n1 [I-336, N-cyclopropyl-7-(cyclopropylamino)-5-((2-methoxypyridin-3-yl)amino)pyrazolo[1,5-a]pyrimidine-3-carboxamide] |
| 0.2 to 1 | < 50 | < 50 | COc1ncccc1Nc1cc(NC2CC2)n2ncc(C(=O)N[C@@H]3C[C@@H]3F)c2n1 [I-337, 7-(cyclopropylamino)-N-((1R,2S)-2-fluorocyclopropyl)-5-((2-methoxypyridin-3-yl)amino)pyrazolo[1,5-a]pyrimidine-3-carboxamide] |
| < 0.2 | < 50 | < 50 | CNc1cc(Nc2cccnc2OC)nc2c(C(=O)NC3CC(F)(F)C3)cnn12 [I-338, N-(3,3-difluorocyclobutyl)-5-((2-methoxypyridin-3-yl)amino)-7-(methylamino)pyrazolo[1,5-a]pyrimidine-3-carboxamide] |
| 0.2 to 1 | < 50 | < 50 | CNc1cc(Nc2cccnc2OC2CC2)nc2c(C(=O)NC3CC(F)(F)C3)cnn12 [I-339, 5-((2-cyclopropoxypyridin-3-yl)amino)-N-(3,3-difluorocyclobutyl)-7-(methylamino)pyrazolo[1,5-a]pyrimidine-3-carboxamide] |
| 0.2 to 1 | < 50 | < 50 | CNc1cc(Nc2cccn(-c3cc(C)nn3C)c2=O)nc2c(C(=O)NC3CC3)cnn12 [I-340] |
| 0.2 to 1 | < 50 | < 50 | CNc1cc(Nc2cccn(-c3cc(C)nn3C)c2=O)nc2c(C(=O)N[C@H]3C[C@H]3F)cnn12 [I-341] |
| 0.2 to 1 | < 50 | < 50 | CNc1cc(Nc2cccn(C3CCN(C)CC3)c2=O)nc2c(C(=O)NC3CC3)cnn12 [I-348] |
